Experiments:
[1] = target: T1, MET (Homo sapiens, UniProt P08581); test: Test C: inhibition of the autophosphorylation of MET, ELISA technique (pppY1230, 1234, 1235), MKN45 cells; format: cell-based
T1 construct: endogenous in cells; host or cells: MKN45 cells
Summary of the method: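 MKN45 cells adhered 24 h, then treated 1 h with compound at 6 concentrations in duplicate, final range 10000 to 30 nM. Lysates assayed by phospho-MET (pY1230/1234/1235) sandwich ELISA with HRP chromogen read at 450 nm.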

[2] = target: T2, c-MET (Homo sapiens, UniProt P08581); test: Test A: HTRF Met test in 96-well format; format: biochemical
T2 construct: The recombinant DNA His-Tev-MET (956-1390) in pFastBac(Invitrogen); His (N, cleaved yes); Tev (TEV protease site) (N, cleaved yes); made in house; host or cells: SF21 insect cells (baculovirus, pFastBac)
Summary of the method: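 Percent inhibition was calculated from the HTRF 665/620 ratio, using Eu-cryptate anti-phosphotyrosine PT66 plus streptavidin-XL added with EDTA and read after 2 h. The reaction ran 10 min at room temperature: 5 nM tag-cleaved MET (956–1390), 10 µM ATP, 1 µg/ml poly-GAT, and compound from 0.17 nM to 10 µM in 3% DMSO.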

T2 sequence (P08581 956-1390): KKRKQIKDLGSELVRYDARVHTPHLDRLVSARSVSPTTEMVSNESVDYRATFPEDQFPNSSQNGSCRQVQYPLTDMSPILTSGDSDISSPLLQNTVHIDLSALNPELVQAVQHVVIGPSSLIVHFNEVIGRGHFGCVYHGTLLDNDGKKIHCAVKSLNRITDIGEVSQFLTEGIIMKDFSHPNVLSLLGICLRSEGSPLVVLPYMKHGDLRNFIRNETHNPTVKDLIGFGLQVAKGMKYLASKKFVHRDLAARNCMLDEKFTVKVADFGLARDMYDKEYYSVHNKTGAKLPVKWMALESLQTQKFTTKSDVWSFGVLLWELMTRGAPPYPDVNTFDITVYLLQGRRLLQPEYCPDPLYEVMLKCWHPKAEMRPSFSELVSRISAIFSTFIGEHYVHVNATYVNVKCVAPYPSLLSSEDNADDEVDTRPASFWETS
T1 sequence (P08581 25-1390): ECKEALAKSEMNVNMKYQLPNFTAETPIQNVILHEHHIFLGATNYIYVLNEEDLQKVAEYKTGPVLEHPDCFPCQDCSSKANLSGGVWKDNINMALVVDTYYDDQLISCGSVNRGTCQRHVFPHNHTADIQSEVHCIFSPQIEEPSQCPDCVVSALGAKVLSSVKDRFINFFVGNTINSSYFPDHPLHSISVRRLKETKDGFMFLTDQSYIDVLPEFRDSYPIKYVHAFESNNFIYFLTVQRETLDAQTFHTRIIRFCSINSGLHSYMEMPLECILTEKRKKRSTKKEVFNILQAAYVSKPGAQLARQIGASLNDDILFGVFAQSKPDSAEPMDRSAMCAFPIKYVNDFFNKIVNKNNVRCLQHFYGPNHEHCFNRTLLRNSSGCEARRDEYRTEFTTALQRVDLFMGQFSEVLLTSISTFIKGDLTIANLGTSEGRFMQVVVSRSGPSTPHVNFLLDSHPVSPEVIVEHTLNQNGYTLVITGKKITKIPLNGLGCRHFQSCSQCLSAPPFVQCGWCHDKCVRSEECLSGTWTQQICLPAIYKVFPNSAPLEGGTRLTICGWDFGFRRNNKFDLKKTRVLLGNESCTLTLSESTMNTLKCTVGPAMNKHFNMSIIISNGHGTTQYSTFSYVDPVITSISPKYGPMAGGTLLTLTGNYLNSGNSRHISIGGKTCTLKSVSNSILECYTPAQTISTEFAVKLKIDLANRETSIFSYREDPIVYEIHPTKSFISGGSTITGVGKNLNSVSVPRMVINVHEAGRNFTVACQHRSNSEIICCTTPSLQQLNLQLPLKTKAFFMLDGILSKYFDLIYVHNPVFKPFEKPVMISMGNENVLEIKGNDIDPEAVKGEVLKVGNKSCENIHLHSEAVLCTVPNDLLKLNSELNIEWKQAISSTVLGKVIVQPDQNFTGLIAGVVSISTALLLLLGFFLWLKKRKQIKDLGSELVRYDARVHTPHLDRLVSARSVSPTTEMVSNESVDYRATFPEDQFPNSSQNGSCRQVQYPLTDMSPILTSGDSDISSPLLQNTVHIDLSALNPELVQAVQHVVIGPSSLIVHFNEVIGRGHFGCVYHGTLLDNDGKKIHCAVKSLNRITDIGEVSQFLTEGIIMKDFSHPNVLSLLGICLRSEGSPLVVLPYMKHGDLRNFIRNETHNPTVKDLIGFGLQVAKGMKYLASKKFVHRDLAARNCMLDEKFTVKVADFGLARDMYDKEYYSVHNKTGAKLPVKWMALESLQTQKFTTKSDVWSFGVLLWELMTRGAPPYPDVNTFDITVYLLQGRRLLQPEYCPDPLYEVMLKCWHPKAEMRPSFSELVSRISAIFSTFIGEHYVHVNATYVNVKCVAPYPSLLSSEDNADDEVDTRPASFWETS

IC50 [1] [nM]	IC50 [2] [nM]	melting point [°C]	SMILES
< 500	< 100	–	CC(Oc1cc2sc(NC(=O)NCCN)nc2cc1F)c1c(Cl)ccc(F)c1Cl (single isomer, unassigned) [Example 89, 1-(2-aminoethyl)-3-{6-[(1R*)-1-(2,6-dichloro-3-fluorophenyl)ethoxy]-5-fluoro-1,3-benzothiazol-2-yl}urea]
< 500	< 100	74 to 83	CCN(CC)CCNC(=O)Nc1nc2ccc(OC(C)c3c(Cl)ccc(F)c3Cl)cc2s1 (stereo not drawn) [Example 82, 1-{6-[1-(2,6-dichloro-3-fluorophenyl)ethoxy]-1,3-benzothiazol-2-yl}-3-[2-(diethylamino)ethyl]urea]
500 to 10000	< 100	142 to 146	CC(Oc1cc2sc(NC(=O)NCCN(C)Cc3ccccc3)nc2cc1F)c1c(Cl)ccc(F)c1Cl (stereo not drawn) [Example 94, 1-{2-[benzyl(methyl)amino]ethyl}-3-{6-[1-(2,6-dichloro-3-fluorophenyl)ethoxy]-5-fluoro-1,3-benzothiazol-2-yl}urea]
500 to 10000	< 100	133 to 135	O=C(Nc1nc2ccc(OCc3c(Cl)cccc3Cl)cc2[nH]1)C1CC1 [Example 7, N-{6-[(2,6-dichlorobenzyl)oxy]-1H-benzimidazol-2-yl}cyclopropane carboxamide]
< 500	< 100	176 to 179	COCCNC(=O)Nc1nc2cc(F)c(OC(C)c3c(Cl)ccc(F)c3Cl)cc2s1 (stereo not drawn) [Example 81, 1-{6-[1-(2,6-dichloro-3-fluorophenyl)ethoxy]-5-fluoro-1,3-benzothiazol-2-yl}-3-(2-methoxyethyl)urea]
500 to 10000	< 100	170	CC(Oc1cc2sc(NC(=O)NCCOCc3ccccc3)nc2cc1F)c1c(Cl)ccc(F)c1Cl (stereo not drawn) [Example 97, 1-[2-(benzyloxy)ethyl]-3-{6-[1-(2,6-dichloro-3-fluorophenyl)ethoxy]-5-fluoro-1,3-benzothiazol-2-yl}urea]
< 500	< 100	–	CC(Oc1cc2sc(NC(=O)NCCN3CCCC3)nc2cc1F)c1c(Cl)ccc(F)c1Cl (single isomer, unassigned) [Example 85, 1-{6-[(1R*)-1-(2,6-dichloro-3-fluorophenyl)ethoxy]-5-fluoro-1,3-benzothiazol-2-yl}-3-[2-(pyrrolidin-1-yl)ethyl]urea]
< 500	< 100	191 to 195	CC(Oc1cc2sc(NC(=O)NCCCN3CCCC3=O)nc2cc1F)c1c(Cl)ccc(F)c1Cl (stereo not drawn) [Example 78, 1-{6-[1-(2,6-dichloro-3-fluorophenyl)ethoxy]-5-fluoro-1,3-benzothiazol-2-yl}-3-[3-(2-oxopyrrolidin-1-yl)propyl]urea]
< 500	< 100	–	CC(Oc1cc2sc(NC(=O)NCCN3CCN(C)CC3)nc2cc1F)c1c(Cl)ccc(F)c1Cl (single isomer, unassigned) [Example 76, 1-{6-[(1R*)-1-(2,6-dichloro-3-fluorophenyl)ethoxy]-5-fluoro-1,3-benzothiazol-2-yl}-3-[2-(4-methylpiperazin-1-yl)ethyl]urea]
< 500	< 100	190 to 192	CC(Oc1cc2[nH]c(NC(=O)NCCN3CCOCC3)nc2cc1F)c1c(Cl)ccc(F)c1Cl (stereo not drawn) [Example 6, 1-{6-[1-(2,6-dichloro-3-fluorophenyl)ethoxy]-5-fluoro-1H-benzimidazol-2-yl}-3-(2-morpholin-4-ylethyl)urea]

The remaining lines, values behind:

SMILES	IC50 [1] [nM]	IC50 [2] [nM]	melting point [°C]
CC(Oc1cc2sc(NC(=O)NCCN3CCCC3)nc2cc1F)c1c(Cl)ccc(F)c1Cl (stereo not drawn) [Example 84, 1-{6-[1-(2,6-dichloro-3-fluorophenyl)ethoxy]-5-fluoro-1,3-benzothiazol-2-yl}-3-[2-(pyrrolidin-1-yl)ethyl]urea]	< 500	< 100	178 to 190
CC(Oc1cc2sc(NC(=O)NCCN)nc2cc1F)c1c(Cl)ccc(F)c1Cl (stereo not drawn) [Example 88, 1-(2-aminoethyl)-3-{6-[1-(2,6-dichloro-3-fluorophenyl)ethoxy]-5-fluoro-1,3-benzothiazol-2-yl}urea]	< 500	< 100	178
CNCCNC(=O)Nc1nc2cc(F)c(OC(C)c3c(Cl)ccc(F)c3Cl)cc2s1 (stereo not drawn) [Example 96, 1-{6-[1-(2,6-dichloro-3-fluorophenyl)ethoxy]-5-fluoro-1,3-benzothiazol-2-yl}-3-[2-(methylamino)ethyl]urea]	< 500	< 100	173 to 188
CC(Oc1cc2sc(NC(=O)NCCC3CCCN3C)nc2cc1F)c1c(Cl)ccc(F)c1Cl (stereo not drawn) [Example 79, 1-{6-[1-(2,6-dichloro-3-fluorophenyl)ethoxy]-5-fluoro-1,3-benzothiazol-2-yl}-3-[2-(1-methylpyrrolidin-2-yl)ethyl]urea]	< 500	< 100	78 to 89
CCN(CC)CCCNC(=O)Nc1nc2ccc(OC(C)c3c(Cl)ccc(F)c3Cl)cc2s1 (stereo not drawn) [Example 83, 1-{6-[1-(2,6-dichloro-3-fluorophenyl)ethoxy]-1,3-benzothiazol-2-yl}-3-[3-(diethylamino)propyl]urea]	< 500	< 100	–
CC(Oc1cc2sc(NC(=O)NCCO)nc2cc1F)c1c(Cl)ccc(F)c1Cl (stereo not drawn) [Example 98, 1-{6-[1-(2,6-dichloro-3-fluorophenyl)ethoxy]-5-fluoro-1,3-benzothiazol-2-yl}-3-(2-hydroxyethyl)urea]	< 500	< 100	198
CC(Oc1cc2sc(NC(=O)NCCN(C)C(=O)OC(C)(C)C)nc2cc1F)c1c(Cl)ccc(F)c1Cl (stereo not drawn) [Example 95]	500 to 10000	< 100	–
CC(Oc1cc2sc(NC(=O)NCCN3CCN(C)CC3)nc2cc1F)c1c(Cl)ccc(F)c1Cl (stereo not drawn) [Example 75, 1-{6-[1-(2,6-dichloro-3-fluorophenyl)ethoxy]-5-fluoro-1,3-benzothiazol-2-yl}-3-[2-(4-methylpiperazin-1-yl)ethyl]urea]	< 500	< 100	131 to 134
CC(Oc1cc2sc(NC(=O)NCCN3CCN(C)CC3)nc2cc1F)c1c(Cl)ccc(F)c1Cl (single isomer, unassigned) [Example 77, 1-{6-[(1S*)-1-(2,6-dichloro-3-fluorophenyl)ethoxy]-5-fluoro-1,3-benzothiazol-2-yl}-3-[2-(4-methylpiperazin-1-yl)ethyl]urea]	500 to 10000	< 100	–

Reference: US8188078B2 (Sanofi-Aventis, priority 2007, dated 2012)
